From ChEMBL document CHEMBL5247641, “Discovery of Potent DYRK2 Inhibitors with High Selectivity, Great Solubility, and Excellent Safety Properties for the Treatment of Prostate Cancer” (J Med Chem, 2023)
Active and inactive are the calls of the source. The calls are words filed in the database; no cut-off is given here.

Legend:
DU-145 [1] = assay: Antiproliferative activity against human DU-145 cells assessed as inhibition of clone formation at 1 to 8 uM incubated for 2 weeks by crystal violet staining based assay; format: functional, cell-based; conditions: dose 1-8 µM
CWR22R [2] = assay: Antiproliferative activity against human 22Rv1 cells assessed as inhibition of clone formation at 1 to 8 uM incubated for 2 weeks by crystal violet staining based assay; format: functional, cell-based; conditions: dose 1-8 µM
CWR22R [3] = assay: Antimigratory activity against human 22Rv1 cells assessed as inhibition of cell migration at 1 to 8 uM incubated for 24 hrs by transwell migration assay; format: functional, cell-based; conditions: dose 1-8 µM
DU-145 [4] = assay: Induction of cell cycle arrest in human DU-145 cells assessed as accumulation of cells at G1 phase at 2 uM incubated for 24 hrs by propidium iodide based flow cytometric analysis (Rvb= 53.46%); format: functional
DU-145 [5] = assay: Induction of cell cycle arrest in human DU-145 cells assessed as accumulation of cells at S phase at 1 uM incubated for 24 hrs by propidium iodide based flow cytometric analysis (Rvb= 29.02%); format: functional
CWR22R [6] = assay: Induction of cell cycle arrest in human 22Rv1 cells assessed as accumulation of cells at G2 phase at 4 uM incubated for 24 hrs by propidium iodide based flow cytometric analysis (Rvb=24.21 %); format: functional
DU-145 [7] = assay: Induction of apoptosis in human DU-145 cells assessed as apoptotis rate at 2 uM incubated for 24 hrs by Annexin V-FITC and PI staining based flow cytometry (Rvb= 4.36%); format: functional
CWR22R [8] = assay: Induction of apoptosis in human 22Rv1 cells assessed as increase in cleaved PARP level at 2 to 8 uM incubated for 24 hrs by Western blot analysis; format: functional, cell-based; conditions: dose 2-8 µM
DU-145 [9] = assay: Antiproliferative activity against human DU-145 cells assessed as reduction in c-Myc expression level at 2 to 8 uM incubated for 24 hrs by Western blot analysis; format: functional, cell-based; conditions: dose 2-8 µM
CWR22R [10] = assay: Antiproliferative activity against human 22Rv1 cells assessed as reduction in c-Myc expression level at 2 to 8 uM incubated for 24 hrs by Western blot analysis; format: functional, cell-based; conditions: dose 2-8 µM
CWR22R [11] = assay: Antiproliferative activity against human 22Rv1 cells assessed as increase in p27 expression level at 2 to 8 uM incubated for 24 hrs by Western blot analysis; format: functional, cell-based; conditions: dose 2-8 µM
[12] = Acute toxicity in ICR mouse assessed as change in lung weight at 1000 to 10000 mg/kg,po and measured after 14 days; format: organism-based; conditions: in vivo, 336 h, dose 1000-10000 mg/kg, time 14 day
DU-145 [13] = assay: Antitumor activity against human DU-145 xenografted in BALB/c nude mouse assessed as tumor growth inhibition at 100 mg/kg,po qd for 21 days; format: functional, organism-based; conditions: time 21.0 day
DU-145 [14] = assay: Antitumor activity against human DU-145 xenografted in BALB/c nude mouse assessed as tumor growth inhibition at 200 mg/kg,po administrated once daily for 21 days; format: functional, organism-based; conditions: time 21.0 day
DU-145 [15] = assay: Antitumor activity against human DU-145 xenografted in BALB/c nude mouse as downregulation of p-4E-BP1 level in tumor at 100 to 200 mg/kg,po administrated once daily for 21 days by Western blot analysis; format: functional, organism-based; conditions: dose 100-200 mg/kg, time 21.0 day

Compound: Cl.O=C(c1ccc(Nc2ncc(F)c(-c3ccc4scnc4c3)n2)nc1)N1CCNCC1
- Activity (DU-145 [1]): Active
- Activity (CWR22R [2]): Active
- Activity (CWR22R [3]): Active
- Activity (DU-145 [4]): 61.07%
- Activity (DU-145 [5]): 28.05%
- Activity (CWR22R [6]): 19.42%
- Activity (DU-145 [7]): 6.73%
- Activity (CWR22R [8]): Active
- Activity (DU-145 [9]): Active
- Activity (CWR22R [10]): Active
- Activity (CWR22R [11]): Active
- Activity [12]: Non-Toxic
- Activity (DU-145 [13]): Active
- Activity (DU-145 [14]): Active
- Activity (DU-145 [15]): Active
